In ChEMBL document CHEMBL5352387, “Synthesis and biological evaluation of tyrosine derivatives as peripheral 5HT2A receptor antagonists for nonalcoholic fatty liver disease” (Eur J Med Chem, 2022):
Blank lines part the entries; values can stand above or below the compound they belong to. The source made the active and inactive calls. The calls are words filed in the database; no cut-off is given here.

Key:
[1] = molecular target: T1, 5-hydroxytryptamine receptor 2A (Homo sapiens, UniProt P28223); experiment: Inhibition of 5HT2A receptor (unknown origin) expressed in HEK293 cells at 1 uM by FLIPR Calcium 6 dye based assay relative to control; assay type: functional, cell-based
T1 sequence (P28223 whole entry): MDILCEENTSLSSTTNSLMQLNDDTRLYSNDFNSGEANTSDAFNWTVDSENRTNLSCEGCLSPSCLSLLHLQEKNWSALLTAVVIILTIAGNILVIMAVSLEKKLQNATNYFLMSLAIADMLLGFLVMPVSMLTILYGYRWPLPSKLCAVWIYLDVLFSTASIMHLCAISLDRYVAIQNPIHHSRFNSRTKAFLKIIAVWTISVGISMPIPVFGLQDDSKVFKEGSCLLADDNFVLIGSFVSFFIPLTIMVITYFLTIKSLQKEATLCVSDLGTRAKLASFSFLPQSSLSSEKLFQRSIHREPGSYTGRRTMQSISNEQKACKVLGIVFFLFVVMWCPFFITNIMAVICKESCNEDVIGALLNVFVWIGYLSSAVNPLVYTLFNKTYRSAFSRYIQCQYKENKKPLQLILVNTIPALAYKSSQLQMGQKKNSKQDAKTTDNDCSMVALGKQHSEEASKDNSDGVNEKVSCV

[2] = molecular target: T1, 5-hydroxytryptamine receptor 2A; experiment: Inhibition of 5HT2A receptor (unknown origin) expressed in HEK293 cells by FLIPR Calcium 6 dye based assay; assay type: functional, cell-based
[3] = Drug concentration in plasma of ICR mouse at 5 mg/kg, iv measured at 1 hr; assay type: ADME, organism-based
[4] = Drug concentration in brain of ICR mouse at 5 mg/kg, iv measured at 1 hr; assay type: ADME, organism-based; conditions: read-out: Ct
[5] = Stability in mouse liver microsomes assessed as parent compound remaining measured after 30 mins; assay type: ADME, Microsome; conditions: read-out: Stability
[6] = Stability in rat liver microsomes assessed as parent compound remaining measured after 30 mins; assay type: ADME, Microsome; conditions: read-out: Stability
[7] = Stability in human liver microsomes assessed as parent compound remaining measured after 30 mins; assay type: ADME, Microsome; conditions: read-out: Stability
Cytochrome P450 1A2 = molecular target: T2, Cytochrome P450 1A2 (Homo sapiens, UniProt P05177); experiment: Inhibition of CYP1A2 (unknown origin) relative to control; assay type: ADME
T2 sequence (P05177 whole entry): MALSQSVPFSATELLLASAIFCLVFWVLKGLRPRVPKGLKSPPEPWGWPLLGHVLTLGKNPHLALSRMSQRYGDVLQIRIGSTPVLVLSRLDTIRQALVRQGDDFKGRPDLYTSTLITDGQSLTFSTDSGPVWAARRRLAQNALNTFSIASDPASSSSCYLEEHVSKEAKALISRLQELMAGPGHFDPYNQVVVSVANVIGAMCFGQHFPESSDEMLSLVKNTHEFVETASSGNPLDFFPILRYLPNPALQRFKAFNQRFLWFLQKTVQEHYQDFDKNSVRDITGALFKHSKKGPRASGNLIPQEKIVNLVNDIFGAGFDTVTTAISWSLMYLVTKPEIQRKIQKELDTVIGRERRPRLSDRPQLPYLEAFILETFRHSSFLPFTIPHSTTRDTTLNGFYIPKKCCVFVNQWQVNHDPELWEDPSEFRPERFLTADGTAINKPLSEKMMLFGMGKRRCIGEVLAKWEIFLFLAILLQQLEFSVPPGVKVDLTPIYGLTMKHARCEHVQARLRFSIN

Cytochrome P450 2C9 = Cytochrome P450 2C9 (Homo sapiens, UniProt P11712); experiment: Inhibition of CYP2C9 (unknown origin) relative to control; assay type: ADME
Chain of Cytochrome P450 2C9 (P11712 whole entry): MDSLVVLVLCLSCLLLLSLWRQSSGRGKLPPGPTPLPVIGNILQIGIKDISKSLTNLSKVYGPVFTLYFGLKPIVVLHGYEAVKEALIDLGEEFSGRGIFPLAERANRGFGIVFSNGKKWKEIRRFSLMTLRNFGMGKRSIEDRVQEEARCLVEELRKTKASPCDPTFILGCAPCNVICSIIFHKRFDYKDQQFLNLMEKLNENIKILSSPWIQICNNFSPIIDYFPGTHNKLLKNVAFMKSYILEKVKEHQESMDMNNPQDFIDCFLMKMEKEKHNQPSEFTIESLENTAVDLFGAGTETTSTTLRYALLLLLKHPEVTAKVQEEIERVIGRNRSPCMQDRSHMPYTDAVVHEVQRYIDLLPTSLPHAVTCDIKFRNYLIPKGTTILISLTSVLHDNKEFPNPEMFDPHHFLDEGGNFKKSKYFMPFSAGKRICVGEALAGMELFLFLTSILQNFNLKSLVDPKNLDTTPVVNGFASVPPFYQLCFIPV

Cytochrome P450 2C19 = Cytochrome P450 2C19 (Homo sapiens, UniProt P33261); experiment: Inhibition of CYP2C19 (unknown origin) relative to control; assay type: ADME
Chain of Cytochrome P450 2C19 (P33261 whole entry): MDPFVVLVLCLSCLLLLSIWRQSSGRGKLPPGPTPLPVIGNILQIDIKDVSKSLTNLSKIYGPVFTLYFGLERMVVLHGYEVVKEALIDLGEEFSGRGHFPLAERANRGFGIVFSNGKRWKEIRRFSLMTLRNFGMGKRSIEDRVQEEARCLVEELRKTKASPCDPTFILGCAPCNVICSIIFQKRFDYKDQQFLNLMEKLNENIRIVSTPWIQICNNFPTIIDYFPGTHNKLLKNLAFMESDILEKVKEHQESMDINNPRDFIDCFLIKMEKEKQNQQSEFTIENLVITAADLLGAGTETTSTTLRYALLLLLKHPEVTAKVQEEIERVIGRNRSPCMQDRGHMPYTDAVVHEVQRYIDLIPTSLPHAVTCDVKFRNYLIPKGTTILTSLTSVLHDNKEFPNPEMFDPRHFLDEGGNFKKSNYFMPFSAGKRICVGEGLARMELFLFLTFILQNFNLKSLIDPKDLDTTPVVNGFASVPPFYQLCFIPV

Cytochrome P450 2D6 = Cytochrome P450 2D6 (Homo sapiens, UniProt P10635); experiment: Inhibition of CYP2D6 (unknown origin) relative to control; assay type: ADME
Chain of Cytochrome P450 2D6 (P10635 whole entry): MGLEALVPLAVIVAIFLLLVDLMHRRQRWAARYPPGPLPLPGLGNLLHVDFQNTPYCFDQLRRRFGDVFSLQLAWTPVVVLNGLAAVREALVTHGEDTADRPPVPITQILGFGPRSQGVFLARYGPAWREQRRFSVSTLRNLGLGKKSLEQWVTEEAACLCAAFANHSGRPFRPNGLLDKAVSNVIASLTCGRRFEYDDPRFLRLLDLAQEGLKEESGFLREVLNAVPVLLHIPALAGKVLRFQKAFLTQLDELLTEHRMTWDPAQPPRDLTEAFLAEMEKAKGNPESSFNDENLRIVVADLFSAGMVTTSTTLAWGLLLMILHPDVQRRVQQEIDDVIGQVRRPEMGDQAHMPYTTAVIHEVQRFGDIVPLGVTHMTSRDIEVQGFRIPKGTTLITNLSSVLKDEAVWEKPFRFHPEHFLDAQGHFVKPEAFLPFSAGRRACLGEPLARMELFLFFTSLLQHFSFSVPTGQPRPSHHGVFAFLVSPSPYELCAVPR

Cytochrome P450 3A4 = Cytochrome P450 3A4 (Homo sapiens, UniProt P08684); experiment: Inhibition of CYP3A4 (unknown origin) relative to control; assay type: ADME
Chain of Cytochrome P450 3A4 (P08684 whole entry): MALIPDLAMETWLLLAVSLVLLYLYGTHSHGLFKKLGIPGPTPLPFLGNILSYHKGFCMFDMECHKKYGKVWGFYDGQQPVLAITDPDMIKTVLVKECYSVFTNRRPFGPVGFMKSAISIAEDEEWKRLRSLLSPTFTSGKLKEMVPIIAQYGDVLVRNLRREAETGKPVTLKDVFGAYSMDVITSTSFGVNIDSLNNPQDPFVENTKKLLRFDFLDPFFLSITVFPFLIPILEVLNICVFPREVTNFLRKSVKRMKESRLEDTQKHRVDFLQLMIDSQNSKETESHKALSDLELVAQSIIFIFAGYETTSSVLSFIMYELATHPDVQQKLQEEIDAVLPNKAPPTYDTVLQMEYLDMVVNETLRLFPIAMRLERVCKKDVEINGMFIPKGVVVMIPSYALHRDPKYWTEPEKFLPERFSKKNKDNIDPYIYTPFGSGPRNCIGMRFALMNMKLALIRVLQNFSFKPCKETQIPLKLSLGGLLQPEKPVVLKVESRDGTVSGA

hERG = hERG (Homo sapiens, UniProt Q12809); experiment: Inhibition of hERG at 10 uM relative to control; assay type: toxicity
Chain of hERG (Q12809 whole entry): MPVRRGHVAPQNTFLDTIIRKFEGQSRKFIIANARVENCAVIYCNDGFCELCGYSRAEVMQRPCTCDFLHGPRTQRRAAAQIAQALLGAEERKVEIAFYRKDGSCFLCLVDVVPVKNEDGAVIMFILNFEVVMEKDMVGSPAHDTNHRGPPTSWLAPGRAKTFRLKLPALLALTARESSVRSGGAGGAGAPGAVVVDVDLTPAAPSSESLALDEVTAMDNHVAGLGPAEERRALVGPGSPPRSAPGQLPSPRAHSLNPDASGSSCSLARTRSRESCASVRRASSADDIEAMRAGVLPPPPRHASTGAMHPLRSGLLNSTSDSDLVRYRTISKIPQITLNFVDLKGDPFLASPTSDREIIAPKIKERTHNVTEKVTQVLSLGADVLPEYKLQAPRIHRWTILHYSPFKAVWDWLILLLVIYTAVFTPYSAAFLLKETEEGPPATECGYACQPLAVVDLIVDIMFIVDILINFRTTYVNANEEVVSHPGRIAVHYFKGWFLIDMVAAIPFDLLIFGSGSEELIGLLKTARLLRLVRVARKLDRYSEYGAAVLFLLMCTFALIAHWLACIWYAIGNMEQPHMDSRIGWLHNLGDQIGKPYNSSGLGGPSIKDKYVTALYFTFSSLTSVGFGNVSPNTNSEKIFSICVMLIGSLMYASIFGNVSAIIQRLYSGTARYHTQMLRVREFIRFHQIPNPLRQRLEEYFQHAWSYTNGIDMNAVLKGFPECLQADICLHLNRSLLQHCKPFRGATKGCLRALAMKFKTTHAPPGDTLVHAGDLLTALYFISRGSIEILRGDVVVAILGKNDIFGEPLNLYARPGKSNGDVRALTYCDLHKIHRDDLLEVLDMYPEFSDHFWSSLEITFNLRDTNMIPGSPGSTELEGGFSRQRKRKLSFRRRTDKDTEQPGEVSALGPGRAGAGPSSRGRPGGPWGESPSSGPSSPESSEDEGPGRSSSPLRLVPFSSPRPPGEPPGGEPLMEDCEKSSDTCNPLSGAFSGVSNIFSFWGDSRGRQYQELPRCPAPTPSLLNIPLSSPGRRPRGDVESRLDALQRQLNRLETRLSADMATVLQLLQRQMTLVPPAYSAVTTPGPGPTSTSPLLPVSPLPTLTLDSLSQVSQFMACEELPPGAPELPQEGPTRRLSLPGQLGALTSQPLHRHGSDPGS

[8] = molecular target: T3, 5-hydroxytryptamine receptor 1A (Homo sapiens) (UniProt P08908); experiment: Inhibition of 5HT1A receptor (unknown origin) at 1 uM relative to control
T3 sequence (whole entry): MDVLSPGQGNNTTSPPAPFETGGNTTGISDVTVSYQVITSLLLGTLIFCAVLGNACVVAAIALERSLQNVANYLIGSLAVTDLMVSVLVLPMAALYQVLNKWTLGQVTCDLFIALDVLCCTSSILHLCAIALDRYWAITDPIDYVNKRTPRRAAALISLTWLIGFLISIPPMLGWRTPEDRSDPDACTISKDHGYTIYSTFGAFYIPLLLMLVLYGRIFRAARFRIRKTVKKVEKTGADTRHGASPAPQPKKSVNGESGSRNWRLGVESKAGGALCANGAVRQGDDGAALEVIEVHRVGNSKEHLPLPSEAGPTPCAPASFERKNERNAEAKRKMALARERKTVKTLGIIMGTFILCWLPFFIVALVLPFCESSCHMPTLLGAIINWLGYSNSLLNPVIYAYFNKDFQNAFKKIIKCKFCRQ

[9] = molecular target: T4, 5-hydroxytryptamine receptor 2C (Homo sapiens) (UniProt P28335); experiment: Inhibition of 5HT2C receptor (unknown origin) at 1 uM relative to control
T4 sequence (whole entry): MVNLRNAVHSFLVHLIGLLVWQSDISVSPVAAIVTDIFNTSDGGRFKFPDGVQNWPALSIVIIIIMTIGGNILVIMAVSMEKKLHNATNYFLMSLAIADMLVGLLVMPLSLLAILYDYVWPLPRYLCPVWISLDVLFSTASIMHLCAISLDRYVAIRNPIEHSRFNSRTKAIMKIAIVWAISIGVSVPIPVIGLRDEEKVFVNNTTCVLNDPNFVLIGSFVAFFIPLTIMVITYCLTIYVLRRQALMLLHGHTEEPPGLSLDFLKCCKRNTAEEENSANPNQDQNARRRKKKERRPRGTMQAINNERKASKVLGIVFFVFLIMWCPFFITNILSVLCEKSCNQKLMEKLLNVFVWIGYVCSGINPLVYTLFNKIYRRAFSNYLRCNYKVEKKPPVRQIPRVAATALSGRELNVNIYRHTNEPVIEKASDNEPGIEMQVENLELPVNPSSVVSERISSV

[10] = molecular target: Serotonin 3 (5-HT3) receptor (Homo sapiens) (UniProt P46098+A5X5Y0+O95264+Q70Z44+Q8WXA8); experiment: Inhibition of 5HT3 receptor (unknown origin) at 1 uM relative to control; assay type: protein-complex assay
[11] = molecular target: 5-hydroxytryptamine receptor 4 (Homo sapiens) (UniProt Q13639); experiment: Inhibition of 5HT4E receptor (unknown origin) at 1 uM relative to control
Chain of 5-hydroxytryptamine receptor 4 (Homo sapiens) (Q13639 whole entry): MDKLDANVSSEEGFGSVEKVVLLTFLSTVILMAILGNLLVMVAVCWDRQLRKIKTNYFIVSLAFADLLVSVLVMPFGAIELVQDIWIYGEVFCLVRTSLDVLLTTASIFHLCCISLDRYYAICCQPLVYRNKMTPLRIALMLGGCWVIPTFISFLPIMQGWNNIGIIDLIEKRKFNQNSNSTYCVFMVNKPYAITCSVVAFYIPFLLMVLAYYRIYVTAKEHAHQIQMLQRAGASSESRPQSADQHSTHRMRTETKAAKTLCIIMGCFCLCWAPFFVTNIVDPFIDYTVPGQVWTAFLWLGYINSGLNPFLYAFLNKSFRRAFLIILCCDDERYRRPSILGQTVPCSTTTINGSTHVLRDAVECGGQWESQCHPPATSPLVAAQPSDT

[12] = molecular target: 5-hydroxytryptamine receptor 5A (Homo sapiens) (UniProt P47898); experiment: Inhibition of 5HT5A receptor (unknown origin) at 1 uM relative to control
Chain of 5-hydroxytryptamine receptor 5A (Homo sapiens) (P47898 whole entry): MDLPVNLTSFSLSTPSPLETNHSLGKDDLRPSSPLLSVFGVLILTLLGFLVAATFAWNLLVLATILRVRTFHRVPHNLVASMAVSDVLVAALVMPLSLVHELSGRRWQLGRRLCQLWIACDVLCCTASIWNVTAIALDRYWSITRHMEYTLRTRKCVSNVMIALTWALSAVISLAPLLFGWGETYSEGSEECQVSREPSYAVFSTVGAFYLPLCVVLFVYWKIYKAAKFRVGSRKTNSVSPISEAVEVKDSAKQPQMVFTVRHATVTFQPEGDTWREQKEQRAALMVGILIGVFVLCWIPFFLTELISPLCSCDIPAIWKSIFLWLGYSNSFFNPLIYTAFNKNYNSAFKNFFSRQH

[13] = molecular target: 5-hydroxytryptamine receptor 6 (Homo sapiens) (UniProt P50406); experiment: Inhibition of 5HT6 receptor (unknown origin) at 1 uM relative to control
[14] = molecular target: 5-hydroxytryptamine receptor 7 (Homo sapiens) (UniProt P34969); experiment: Inhibition of 5HT7 receptor (unknown origin) at 1 uM relative to control
Chain of 5-hydroxytryptamine receptor 7 (Homo sapiens) (P34969 whole entry): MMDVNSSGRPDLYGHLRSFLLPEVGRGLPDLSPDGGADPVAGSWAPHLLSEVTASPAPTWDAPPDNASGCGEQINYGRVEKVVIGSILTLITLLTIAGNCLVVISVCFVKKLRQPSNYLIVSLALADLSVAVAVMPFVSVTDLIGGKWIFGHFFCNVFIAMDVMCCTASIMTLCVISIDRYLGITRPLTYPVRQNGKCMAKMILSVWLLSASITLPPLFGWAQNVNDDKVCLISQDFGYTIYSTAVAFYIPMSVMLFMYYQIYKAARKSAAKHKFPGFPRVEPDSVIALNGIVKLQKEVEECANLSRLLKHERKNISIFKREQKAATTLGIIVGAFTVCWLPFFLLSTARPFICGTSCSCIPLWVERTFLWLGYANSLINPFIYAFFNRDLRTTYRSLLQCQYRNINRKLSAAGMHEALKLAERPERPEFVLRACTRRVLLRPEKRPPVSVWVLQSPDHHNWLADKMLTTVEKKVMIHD

Mus musculus [15] = experiment: Reduction in hepatic steatosis in high fat diet-induced NAFLD C57BL6/J mouse model at 1 mg/kg, ip measured after 8 weeks; assay type: functional, organism-based
Mus musculus [16] = experiment: Reduction in hepatic steatosis in high fat diet-induced NAFLD C57BL6/J mouse model assessed as reduction in lobular inflammation at 1 mg/kg, ip measured after 8 weeks by H and E staining analysis; assay type: functional, organism-based
Mus musculus [17] = experiment: Reduction in hepatic steatosis in high fat diet-induced NAFLD C57BL6/J mouse model assessed as reduction in hepatic triglyceride level at 1 mg/kg, ip measured after 8 weeks by colorimetric assay; assay type: functional, organism-based
Mus musculus [18] = experiment: Reduction in hepatic steatosis in high fat diet-induced NAFLD C57BL6/J mouse model assessed as reduction in serum ALT level at 1 mg/kg, ip measured after 8 weeks; assay type: functional, organism-based
Mus musculus [19] = experiment: Reduction in hepatic steatosis in high fat diet-induced NAFLD C57BL6/J mouse model assessed as reduction in serum AST level at 1 mg/kg, ip measured after 8 weeks; assay type: functional, organism-based
Mus musculus [20] = experiment: Reduction in hepatic steatosis in high fat diet-induced NAFLD C57BL6/J mouse model assessed as reduction in serum cholesterol level at 1 mg/kg, ip measured after 8 weeks; assay type: functional, organism-based
Mus musculus [21] = experiment: Reduction in hepatic steatosis in high fat diet-induced NAFLD C57BL6/J mouse model assessed as body weight gain at 1 mg/kg, ip measured after 8 weeks; assay type: functional, organism-based
Mus musculus [22] = experiment: Reduction in hepatic steatosis in high fat diet-induced NAFLD C57BL6/J mouse model assessed as reduction in fat body mass at 1 mg/kg, ip measured after 8 weeks; assay type: functional, organism-based
Mus musculus [23] = experiment: Reduction in hepatic steatosis in high fat diet-induced NAFLD C57BL6/J mouse model assessed as increase in lean body mass at 1 mg/kg, ip measured after 8 weeks; assay type: functional, organism-based
Mus musculus [24] = experiment: Reduction in hepatic steatosis in high fat diet-induced NAFLD C57BL6/J mouse model assessed as improved glucose tolerance at 1 mg/kg, ip measured after 8 weeks by glucometer analysis; assay type: functional, organism-based
Mus musculus [25] = experiment: Reduction in hepatic steatosis in high fat diet-induced NAFLD C57BL6/J mouse model assessed as reduction in adipose tissue inflammation at 1 mg/kg, ip measured after 8 weeks by H and E staining based analysis; assay type: functional, organism-based
Mus musculus [26] = experiment: Reduction in hepatic steatosis in high fat diet-induced NAFLD C57BL6/J mouse model assessed as decrease in size of adipocytes in epididymis white adipose tissue at 1 mg/kg, ip measured after 8 weeks by H and E staining based analysis; assay type: functional, organism-based
Mus musculus [27] = experiment: Reduction in hepatic steatosis in high fat diet-induced NAFLD C57BL6/J mouse model assessed as decrease in size of adipocytes in inguinal white adipose tissue at 1 mg/kg, ip measured after 8 weeks by H and E staining based analysis; assay type: functional, organism-based
Mus musculus [28] = experiment: Reduction in hepatic steatosis in high fat diet-induced NAFLD C57BL6/J mouse model assessed as decrease in size of lipid droplet in brown adipose tissue at 1 mg/kg, ip measured after 8 weeks by H and E staining based analysis; assay type: functional, organism-based
Mus musculus [29] = experiment: Reduction in hepatic steatosis in high fat diet-induced NAFLD C57BL6/J mouse model assessed as increase in multilocular adipocytes at 1 mg/kg, ip measured after 8 weeks by H and E staining based analysis; assay type: functional, organism-based

Compound: N[C@@H](Cc1ccc(OCCN2CCC(c3noc4cc(F)ccc34)CC2)cc1)C(=O)O
inhibition [1]: 74.8%

Compound: N[C@@H](Cc1ccc(OCCN2CCN(c3cccc(Cl)c3Cl)CC2)cc1)C(=O)O
inhibition [1]: 43.2%

Compound: Cl.Cl.N[C@@H](Cc1ccc(OCCCN2CCC(c3noc4cc(F)ccc34)CC2)cc1)C(=O)O
inhibition [1]: 92%
IC50 [2]: 0.17 nM
concentration at 1 h [3]: 901 ng/mL
concentration at 1 h [4]: < 7.8 ng/mL
remaining at 0.5 h [5]: > 99%
remaining at 0.5 h [6]: 98.5%
remaining at 0.5 h [7]: > 99%
inhibition (INH) (Cytochrome P450 1A2): 4.3%
inhibition (INH) (Cytochrome P450 2C9): 1.8%
inhibition (INH) (Cytochrome P450 2C19): < 1%
inhibition (INH) (Cytochrome P450 2D6): 31.9%
inhibition (INH) (Cytochrome P450 3A4): < 1%
inhibition at 10 µM (hERG): 30.9%
inhibition [8]: 68%
inhibition [9]: 98%
inhibition [10]: 22%
inhibition [11]: 50.4%
inhibition [12]: 16%
inhibition [13]: 4%
inhibition [14]: 24%
Activity (Mus musculus [15]): Active
Activity (Mus musculus [16]): Active
Activity (Mus musculus [17]): Active
Activity (Mus musculus [18]): Active
Activity (Mus musculus [19]): Active
Activity (Mus musculus [20]): inactive
Activity (Mus musculus [21]): Active
Activity (Mus musculus [22]): Active
Activity (Mus musculus [23]): Active
Activity (Mus musculus [24]): Active
Activity (Mus musculus [25]): Active
Activity (Mus musculus [26]): Active
Activity (Mus musculus [27]): Active
Activity (Mus musculus [28]): Active
Activity (Mus musculus [29]): Active

Compound: Cl.Cl.N[C@@H](Cc1ccc(OCC(O)CN2CCC(c3noc4cc(F)ccc34)CC2)cc1)C(=O)O (stereo partly drawn)
inhibition [1]: 90.8%
IC50 [2]: 2.15 nM
concentration at 1 h [3]: 1230 ng/mL
concentration at 1 h [4]: < 7.8 ng/mL

Compound: Cl.Cl.N[C@@H](Cc1ccc(OCCN2CCN(c3nsc4ccccc34)CC2)cc1)C(=O)O
inhibition [1]: 73.9%
concentration at 1 h [3]: 165 ng/mL
concentration at 1 h [4]: < 7.8 ng/mL

Compound: O=C(O)CCc1ccc(OCCN2CCN(c3nsc4ccccc34)CC2)cc1
inhibition [1]: 43.4%
concentration at 1 h [3]: 114 ng/mL
concentration at 1 h [4]: < 7.8 ng/mL

Compound: O=C(O)Cc1ccc(OCCN2CCN(c3nsc4ccccc34)CC2)cc1
inhibition [1]: 9.53%

Other lines, results leading:

inhibition [1]: 33.3%
Compound: O=C(O)c1ccc(OCCN2CCN(c3nsc4ccccc34)CC2)cc1

inhibition [1]: 91.4%
IC50 [2]: 3.6 nM
Compound: N[C@@H](Cc1ccc(OCCCCN2CCC(c3noc4cc(F)ccc34)CC2)cc1)C(=O)O

inhibition [1]: 53.4%
Compound: N[C@H](Cc1ccc(OCCN2CCN(c3nsc4ccccc34)CC2)cc1)C(=O)O

inhibition [1]: 35.1%
Compound: N[C@@H](Cc1ccc(OCCN2CCC(C(=O)c3ccc(F)cc3)CC2)cc1)C(=O)O
